Values after ≈ are worked out from the molar mass of the structure shown.
Tests used:
rat super-ovulation = test: biological activity in rat super-ovulation; assay type: in vivo
[1] = solubility in a neutral buffer used for nasal application; details: well compatible neutral buffer as used for nasal application of protirelin
Serum testosterone = test: serum testosterone after Gn-RH antagonist (Table 2); assay type: in vivo; details: untreated control 3.63 ± 0.59
Description: The Gn-RH antagonists according to the invention have an inhibitory effect on the formation of lutropin and follitropin and, as a result, also on the synthesis of testosterone and estrogen (see Table 2). They can be employed as high-dose Gn-RH […] in gonadotropin- and steroid-dependent diseases.

Compound	Solubility in neutral nasal buffer [1]	ED20-50 Super-ovul. (rat super-ovulation)	Serum testosterone (Serum testosterone)
CCNC(=O)[C@@H]1CCCN1C(=O)[C@H](CCCNC(=N)N)NC(=O)[C@H](CC(C)C)NC(=O)[C@@H](COC(C)(C)C)NC(=O)[C@H](Cc1ccc(O)cc1)NC(=O)[C@H](CO)NC(=O)[C@H](Cc1c[nH]c2ccccc12)NC(=O)[C@H](Cc1cnc[nH]1)NC(=O)[C@@H]1CCC(=O)N1 [Buserelin, Pgl--His--Trp--Ser--Tyr--D-Ser(tBu)--Leu--Arg--Pro--NH--C2 H5, reference compound]	1250 µg/mL (≈ 1010 µM)	3 ng/rat	–
CCNC(=O)[C@@H]1CCCN1C(=O)[C@H](CCCNC(=N)N)NC(=O)[C@H](CC(C)C)NC(=O)[C@@H](Cc1c[nH]c2ccccc12)NC(=O)[C@H](Cc1ccc(O)cc1)NC(=O)[C@H](CO)NC(=O)[C@H](Cc1c[nH]c2ccccc12)NC(=O)[C@H](Cc1c[nH]cn1)NC(=O)[C@@H]1CCC(=O)N1 [LH--RH--T, Pgl--His--Trp--Ser--Tyr--D-Trp--Leu--Arg--Pro--NH--C2 H5, reference compound]	–	3 ng/rat	–
CCNC(=O)[C@@H]1CCCN1C(=O)[C@H](CCCNC(=N)N)NC(=O)[C@H](CC(C)C)NC(=O)[C@@H](CO[C@H]1O[C@@H](C)[C@@H](O)[C@@H](O)[C@@H]1O)NC(=O)[C@H](Cc1ccc(O)cc1)NC(=O)[C@H](CO)NC(=O)[C@H](Cc1c[nH]c2ccccc12)NC(=O)[C@H](Cc1c[nH]cn1)NC(=O)[C@@H]1CCC(=O)N1 [Pgl-His-Trp-Ser-Tyr-D-Ser(β-L-Fuc)-Leu-Arg-Pro-NH-C2 H5]	167000 µg/mL (≈ 126000 µM)	6 ng/rat	–
CCNC(=O)[C@@H]1CCCN1C(=O)[C@H](CCCNC(=N)N)NC(=O)[C@H](CO[C@H]1O[C@H](CO)[C@@H](O)[C@H](O)[C@@H]1O)NC(=O)[C@@H](Cc1c[nH]c2ccccc12)NC(=O)[C@H](Cc1ccc(O)cc1)NC(=O)[C@H](CO)NC(=O)[C@H](Cc1c[nH]c2ccccc12)NC(=O)[C@H](Cc1c[nH]cn1)NC(=O)[C@@H]1CCC(=O)N1 [Pgl-His-Trp-Ser-Tyr-D-Trp-Ser(α-D-Man)-Arg-Pro-NH-C2 H5]	3300 µg/mL (≈ 2330 µM)	> 24 ng/rat	–
CCNC(=O)[C@@H]1CCCN1C(=O)[C@H](CCCNC(=N)N)NC(=O)[C@H](CO[C@@H]1O[C@H](CO)[C@@H](O)[C@H](O)[C@H]1O)NC(=O)[C@@H](Cc1c[nH]c2ccccc12)NC(=O)[C@H](Cc1ccc(O)cc1)NC(=O)[C@H](CO)NC(=O)[C@H](Cc1c[nH]c2ccccc12)NC(=O)[C@H](Cc1c[nH]cn1)NC(=O)[C@@H]1CCC(=O)N1 [Pgl-His-Trp-Ser-Tyr-D-Trp-Ser(β-D-Glc)-Arg-Pro-NH-C2 H5]	2500 µg/mL (≈ 1760 µM)	6 ng/rat	–
CCNC(=O)[C@@H]1CCCN1C(=O)[C@H](CCCNC(=N)N)NC(=O)[C@H](CO[C@H]1O[C@@H](C)[C@@H](O)[C@@H](O)[C@@H]1O)NC(=O)[C@@H](Cc1c[nH]c2ccccc12)NC(=O)[C@H](Cc1ccc(O)cc1)NC(=O)[C@H](CO)NC(=O)[C@H](Cc1c[nH]c2ccccc12)NC(=O)[C@H](Cc1c[nH]cn1)NC(=O)[C@@H]1CCC(=O)N1 [Pgl-His-Trp-Ser-Tyr-D-Trp-Ser(β-L-Fuc)-Arg-Pro-NH-C2 H5]	2500 µg/mL (≈ 1780 µM)	> 200 ng/rat	–
Ac-D-Nal-p-Cl-D-Phe-D-Trp-Ser-Arg-D-Ser(α-L-Rha)-Leu Arg-Pro-Azagly-NH2	–	–	2.27 ± 0.28 ng/mL
Ac-D-Nal-p-Cl-D-Phe-D-Trp-Ser-His-D-Ser(α-L-Rha)-Leu-Arg-Pro-Azagly-N H2	–	–	1.34 ± 0.17 ng/mL
Ac-D-Nal-p-Cl-D-Phe-D-Trp-Ser-Tyr-D-Ser(α-L-Rha)-Leu-Arg-Pro-Azagly-N H2	–	–	2.30 ± 0.47 ng/mL
Pgl-His-Trp-Ser-Tyr-D-Ser(Ac-α-L-Rha)-Leu-Arg-Pro-NH-C2 H5	50000 µg/mL	3 ng/rat	–
Pgl-His-Trp-Ser-Tyr-D-Ser(Ac-β-L-Fuc)-Leu-Arg-Pro-NH-C2 H5	10000 µg/mL	6 ng/rat	–
Pgl-His-Trp-Ser-Tyr-D-Ser(D-Ara)-Leu-Arg-Pro-NH-C2 H5	125000 µg/mL	< 24 ng/rat	–
Pgl-His-Trp-Ser-Tyr-D-Ser(D-Rib)-Leu-Arg-Pro-NH-C2 H5	10000 µg/mL	< 6 ng/rat	–
Pgl-His-Trp-Ser-Tyr-D-Ser(L-Ara)-Leu-Arg-Pro-NH-C2 H5	125000 µg/mL	12 ng/rat	–
Pgl-His-Trp-Ser-Tyr-D-Ser(α-L-Rha)-Leu-Arg-Pro-NH-C2 H5	167000 µg/mL	3 ng/rat	–
Pgl-His-Trp-Ser-Tyr-D-Ser(β-D-Gal)-Leu-Arg-Pro-NH-C2 H5	125000 µg/mL	12 ng/rat	–
Pgl-His-Trp-Ser-Tyr-D-Ser(β-D-Glc-NAc)-Leu-Arg-Pro-NH-C2 H5	125000 µg/mL	< 6 ng/rat	–
Pgl-His-Trp-Ser-Tyr-D-Ser(β-L-Xyl)-Leu-Arg-Pro-NH-C2 H5	10000 µg/mL	6 ng/rat	–
Pgl-His-Trp-Ser-Tyr-D-Trp-Ser(Ac-α-D-Man)-Arg-Pro-NH-C2 H5	10000 µg/mL	> 24 ng/rat	–
Pgl-His-Trp-Ser-Tyr-D-Trp-Ser(Ac-β-D-Glc)-Arg-Pro-NH-C2 H5	2500 µg/mL	5 ng/rat	–
Pgl-His-Trp-Ser-Tyr-D-Trp-Ser(Ac-β-L-Fuc)-Arg-Pro-NH-C2 H5	10000 µg/mL	200 ng/rat	–
Pgl-His-Trp-Ser-Tyr-D-Trp-Ser(D-Rib)-Arg-Pro-NH-C2 H5	25000 µg/mL	< 24 ng/rat	–
Pgl-His-Trp-Ser-Tyr-D-Trp-Ser(L-Ara)-Arg-Pro-NH-C2 H5	1250 µg/mL	48 ng/rat	–
Pgl-His-Trp-Ser-Tyr-D-Trp-Ser(α-L-Rha)-Arg-Pro-NH-C2 H5	1400 µg/mL	> 24 ng/rat	–
Pgl-His-Trp-Ser-Tyr-D-Trp-Ser(β-D-Glc-NAc)-Arg-Pro-NH-C2 H5	125000 µg/mL	> 24 ng/rat	–
Pgl-His-Trp-Ser-Tyr-D-Trp-Ser(β-L-Xyl)-Arg-Pro-NH-C2 H5	1100 µg/mL	48 ng/rat	–
Pgl-His-Trp-Ser-Tyr-D-Trp-Ser(β-Lac)-Arg-Pro-NH-C2 H5	167000 µg/mL	< 48 ng/rat	–

Second part, led by results:

Solubility in neutral nasal buffer [1]	Compound	ED20-50 Super-ovul. (rat super-ovulation)	Serum testosterone (Serum testosterone)
62500 µg/mL (≈ 46500 µM)	CCNC(=O)[C@@H]1CCCN1C(=O)[C@H](CCCNC(=N)N)NC(=O)[C@H](CC(C)C)NC(=O)[C@@H](CO[C@H]1O[C@H](CO)[C@@H](O)[C@H](O)[C@@H]1O)NC(=O)[C@H](Cc1ccc(O)cc1)NC(=O)[C@H](CO)NC(=O)[C@H](Cc1c[nH]c2ccccc12)NC(=O)[C@H](Cc1c[nH]cn1)NC(=O)[C@@H]1CCC(=O)N1 [Pgl-His-Trp-Ser-Tyr-D-Ser(α-D-Man)-Leu-Arg-Pro-NH-C2 H5]	6 ng/rat	–
125000 µg/mL (≈ 92900 µM)	CCNC(=O)[C@@H]1CCCN1C(=O)[C@H](CCCNC(=N)N)NC(=O)[C@H](CC(C)C)NC(=O)[C@@H](CO[C@@H]1O[C@H](CO)[C@@H](O)[C@H](O)[C@H]1O)NC(=O)[C@H](Cc1ccc(O)cc1)NC(=O)[C@H](CO)NC(=O)[C@H](Cc1c[nH]c2ccccc12)NC(=O)[C@H](Cc1c[nH]cn1)NC(=O)[C@@H]1CCC(=O)N1 [Pgl-His-Trp-Ser-Tyr-D-Ser(β-D-Glc)-Leu-Arg-Pro-NH-C2 H5]	12 ng/rat	–
10000 µg/mL	Pgl--His--Trp--Ser--Tyr--D-Trp--Ser(β-D-Gal)--Arg--Pro--NH--C2 H5	–	–
50000 µg/mL	Pgl-His-Trp-Ser-Tyr-D-Ser(β-D-Xyl)-Leu-Arg-Pro-NH-C2 H5	6 ng/rat	–
167000 µg/mL	Pgl-His-Trp-Ser-Tyr-D-Ser(β-Lac)-Leu-Arg-Pro-NH-C2 H5	12 ng/rat	–
10000 µg/mL	Pgl-His-Trp-Ser-Tyr-D-Trp-Ser(Ac2 -α-D-Man)-Arg-Pro-NH-C2 H5	> 24 ng/rat	–
3300 µg/mL	Pgl-His-Trp-Ser-Tyr-D-Trp-Ser(Ac2 -β-L-Fuc)-Arg-Pro-NH-C2 H5	200 ng/rat	–
500 µg/mL	Pgl-His-Trp-Ser-Tyr-D-Trp-Ser(Ac-α-L-Rha)-Arg-Pro-NH-C2 H5	> 24 ng/rat	–
2500 µg/mL	Pgl-His-Trp-Ser-Tyr-D-Trp-Ser(Ac-β-D-Xyl)-Arg-Pro-NH-C2 H5	6 ng/rat	–
5000 µg/mL	Pgl-His-Trp-Ser-Tyr-D-Trp-Ser(D-Ara)-Arg-Pro-NH-C2 H5	24 ng/rat	–
1700 µg/mL	Pgl-His-Trp-Ser-Tyr-D-Trp-Ser(β-D-Xyl)-Arg-Pro-NH-C2 H5	6 ng/rat	–
